The text below walks through data of publication PMC4820240 (Angewandte Chemie (International ed. in English), 2016).

Usually EC50 stands for the concentration at which the effect is half-maximal. As usually defined, the IC50 is the midpoint of a concentration-inhibition curve.

Data set [1] concerns human RBCs. Conditions: read-out: EC50 RBCs (hemolysis); freshly isolated human RBCs.
The test system of data set [2] is MCF-7 cells. Particulars: read-out: IC50 MCF-7; toxicity towards MCF-7 cells.
Data set [3] deals with HeLa cells. Conditions: read-out: IC50 HeLa; toxicity towards HeLa cells.
Data set [4] concerns A549 cells. Description: Cytotoxicity of CPPs towards A549 cells. Conditions: read-out: IC50 A549; toxicity towards A549 cells. Format: cell-based.
Data set [5] in a line: Serum stability in 25% serum solution. Particulars: 25% serum solution as a function of time (Figure 4B legend).

For `N=C(N)NCCC[C@H](NC(=O)[C@H](CCCNC(=N)N)NC(=O)[C@H](CCCNC(=N)N)NC(=O)[C@H](CCCNC(=N)N)NC(=O)[C@H](CCCNC(=N)N)NC(=O)[C@H](CCCNC(=N)N)NC(=O)[C@H](CCCNC(=N)N)NC(=O)[C@@H](N)CCCNC(=N)N)C(N)=O` [R8], the half-maximal effective concentration (EC50) in data set [1] was determined as 371 µM. In addition, the values for the concentration for half-maximal inhibition (IC50) in data set [2], in data set [3] and in data set [4] were 170 µM, 269 µM and above 1000 µM, respectively.

Consider `N=C(N)NCCC[C@H](NC(=O)CN)C(=O)N[C@@H](CCCCN)C(=O)N[C@@H](CCCCN)C(=O)N[C@@H](CCCNC(=N)N)C(=O)N[C@@H](CCCNC(=N)N)C(=O)N[C@@H](CCC(N)=O)C(=O)N[C@@H](CCCNC(=N)N)C(=O)N[C@@H](CCCNC(=N)N)C(=O)N[C@@H](CCCNC(=N)N)C(=O)N1CCC[C@H]1C(=O)N1CCC[C@H]1C(=O)N[C@@H](CCC(N)=O)C(N)=O` [TAT], for which, in data set [1], the EC50 is 269 µM. The IC50 in data set [2] is 603 µM; in data set [3] it was above 1000 µM; in data set [4] it was above 1000 µM. Moreover, the “t1/2, serum stability” value in data set [5] is 1.7 h.
